Values quoted from earlier work as cited in patent US20180273780A1, “WATER-BASED INK COMPOSITION FOR INK JET RECORDING AND COLORING MATERIAL LIQUID” (Seiko Epson Corporation, priority 2017, published 2018).

Compound | water-octanol partition coefficient (log P)
CCCN1CCCC1=O [1-propyl-2-pyrrolidone] | 0.67
CCCCCCOCC(O)CO (stereo not drawn) [3-(hexyloxy)-1,2-propanediol] | 1.36
CCCCOCCC(=O)N(C)C [3-butoxy-N,N-dimethylpropanamide] | 0.86
CCCCOCCOCCO [butyl diglycol] | 0.56
CCCCC(CC)COCCOCCO (stereo not drawn) [diethylene glycol-2-ethylhexyl ether] | 2.4
tritrimethylolpropane | 0.97
